The RepoRT retention time repository (doi:10.1016/j.scitotenv.2015.08.078)

Test: RP, Waters ACQUITY UPLC BEH C18, 100 × 2.1 mm, 1.7 µm, 0.3 mL/min, estimated dead time 0.73 min; A: water + 0.1% formic acid, pH 3; B: methanol + 0.1% formic acid, pH 3; gradient (min/%B) 0/10 14/90 16/90 18/10
Conditions: stereoisomer not certain

Row | Structure (SMILES) | LC retention time
1 | CON=C(Cc1cccnc1)c1ccc(Cl)cc1Cl (single isomer, unassigned; isomer 1) [Pyrifenox ISOMER 1] | 10.2 min
2 | CC12C=CC(=O)C=C1CCC1C2CCC2(C)C(=O)CCC12 (stereo unspecified) [1.4-Androstadiene-3.17-dione (Boldione)] | 9.82 min
3 | Nc1ccccc1O [2-Aminophenol] | 1.44 min
4 | CCNc1nc(NCC)[nH]c(=O)n1 [2-hydroxysimazine] | 3.33 min
5 | Nc1ccc(Cl)c(Cl)c1 [3.4-dichloroaniline] | 7.98 min
6 | CC(=O)Nc1c(C)n(C)n(-c2ccccc2)c1=O [4-Acetylamino-Antipyrine] | 3.87 min
7 | Cc1c(N)c(=O)n(-c2ccccc2)n1C [4-amino-antipyrine] | 2.92 min
8 | Cc1c(NC=O)c(=O)n(-c2ccccc2)n1C [4-formylamino-Antipyrine] | 3.78 min
9 | CC1CC2C(C(O)CC3(C)C2CCC3(O)C(=O)CO)C2(C)C=CC(=O)C=C12 (stereo unspecified) [6a-Methylprednisolone] | 9.42 min
10 | CCC(C)C1OC2(C=CC1C)CC1CC(CC=C(C)C(OC3CC(OC)C(OC4CC(OC)C(O)C(C)O4)C(C)O3)C(C)C=CC=C3COC4C(O)C(C)=CC(C(=O)O1)C34O)O2 (stereo unspecified) [Abamectin B1a] | 13.5 min
11 | O=C(O)COC(=O)Cc1ccccc1Nc1c(Cl)cccc1Cl [Aceclofenac] | 10.3 min
12 | COP(=O)(NC(C)=O)SC (stereo unspecified) [Acephate] | 1.45 min
13 | CC(=O)c1ccc2c(c1)N(CCCN(C)C)c1ccccc1S2 [Acepromazine] | 8.97 min
14 | CC(=O)Nc1ccc(O)cc1 [Acetaminophen] | 2.4 min
15 | CC(=NC#N)N(C)Cc1ccc(Cl)nc1 [Acetamiprid] | 4.99 min
16 | CCOCN(C(=O)CCl)c1c(C)cccc1CC [Acetochlor] | 11.1 min
17 | COc1cc2c(c3oc(=O)c4c(c13)CCC4=O)C1C=COC1O2 (stereo unspecified) [Aflatoxin B1] | 7.97 min
18 | COc1cc2c(c3c1C1CCC(=O)C1C(=O)O3)C1CCOC1O2 (stereo unspecified) [Aflatoxin B2] | 7.55 min

Row | Structure (SMILES) | LC retention time
19 | COc1cc2c(c3oc(=O)c4c(c13)CCOC4=O)C1C=COC1O2 (stereo unspecified) [Aflatoxin G1] | 7.15 min
20 | COc1cc2c(c3oc(=O)c4c(c13)CCOC4=O)C1CCOC1O2 (stereo unspecified) [Aflatoxin G2] | 6.71 min
21 | COc1cc2c(c3oc(=O)c4c(c13)CCC4=O)C1(O)C=COC1O2 (stereo unspecified) [Aflatoxin M1] | 7.15 min
22 | CCc1cccc(CC)c1N(COC)C(=O)CCl [Alachlor] | 11.7 min
23 | CCOC(=O)CCN(Cc1ccccc1)SN(C)C(=O)ON=C(C)SC [Alanycarb] | 11.6 min
24 | CCCS(=O)(=O)c1ccc2nc(NC(=O)OC)[nH]c2c1 [Albendazole sulfone] | 6.16 min
25 | CNC(=O)ON=CC(C)(C)S(C)(=O)=O [Aldicarb sulfone] | 4.8 min
26 | CNC(=O)ON=CC(C)(C)S(C)=O (stereo unspecified) [Aldicarb sulfoxide] | 2.54 min
27 | CNC(=O)ON=CC(C)(C)SC [Aldicarb] | 6.2 min
28 | C=CCC1=C(C)C(OC(=O)C2C(C=C(C)C)C2(C)C)CC1=O (stereo unspecified) [Allethrin] | 13.1 min
29 | CCNc1nc(NC(C)C)nc(SC)n1 [Ametryn] | 9.9 min
30 | COc1cc(OC)nc(NC(=O)NS(=O)(=O)N(C)S(C)(=O)=O)n1 [Amidosulfuron] | 4.59 min
31 | Cc1ccc(N=CN(C)C=Nc2ccc(C)cc2C)c(C)c1 [Amitraz] | 13.9 min
32 | CC1(C)SC2C(NC(=O)C(N)c3ccc(O)cc3)C(=O)N2C1C(=O)O (stereo unspecified) [Amoxicillin] | 4.61 min
33 | CC(N)Cc1ccccc1 (stereo unspecified) [Amphetamine] | 3.59 min
34 | CC1(C)SC2C(NC(=O)C(N)c3ccccc3)C(=O)N2C1C(=O)O (stereo unspecified) [Ampicillin] | 4.95 min
35 | COc1ccc(C(O)(c2cncnc2)C2CC2)cc1 (stereo unspecified) [Ancymidol] | 7.72 min
36 | CC12CCC(O)CC1=CCC1C2CCC2(C)C(O)CCC12 (stereo unspecified) [Androstenediol (AED)] | 12.9 min
